Measured values from patent US20220213049A1, “S[…]-4-ONE FOR THE TREATMENT AND PROPHYLAXIS OF HEPATITIS B VIRUS INFECTION” (priority 2019, published 2022).

System: HBeAg (surrogate marker for cccDNA) in HepDES19 cells
Assay: Engineered HepDES19 primary screen assay (HBeAg ELISA)
Assay type: cell-based, HBV
Conditions: Hepatitis B virus, HepDES19, 120 h, read-out: IC50 (HBeAg level, HepDES19 primary screen assay)
From the text: The assay was employed to screen for novel cccDNA inhibitors. HepDES19 is a cccDNA-producing cell line. In this cell line, HBeAg in the cell culture supernatant as surrogate marker, as HBeAg production depends on cccDNA level and activity. HepDES19 is an engineered cell line which contains a 1.1 unit length HBV genome, and pgRNA transcription from the transgene is controlled by Tetracycline (Tet). In the absence of Tet, pgRNA transcription will be induced, but HBV e antigen (HBeAg) could not be produced from this pgRNA due to very short leader sequence before the HBeAg start codon and the start codon is disrupted. Only after cccDNA is formed, the missing leader sequence and start codon mutation would be restored from the 3′-terminal redundancy of pgRNA, and then HBeAg could be synthesized. Therefore, HBeAg could be used as a surrogate marker for cccDNA (Zhou, T. et al., Antiviral Res. (2006), 72(2), 116-124; Guo, H. et al., J. Virol. (2007), 81(22), 12472-12484).
HepDES19 cells were seeded at 2×10^6 cells per T150 flask and cultured with the culture medium (Dulbecco's Modified Eagle Medium: Nutrient Mixture F-12 [DMEM-F12, Gibco Cat. 11320-82], 10% Fetal Bovine Serum [FBS, Clontech Cat. 631101], 0.1 mM Non-Essential Amino Acids Solution [NEAA, Gibco Cat. 11140-050], 50 μg/mL Penicillin-Streptomycin [PS, Invitrogen Cat. 15140-163], 500 μg/mL Geneticin [G418, Invitrogen Cat. 10131-027]) containing 3 μg/mL Tet (Sigma, Cat. 87128) for 5 days. Cells were then seeded at 4×10^6 cells per T150 in the same culture medium as described above in the absence of Tet for 8 days. Cells were then harvested and frozen at density of 2×10^6 cells per ML. For compound testing, the frozen cells were thawed and seeded into 96-well plates at a density of 6×10^4 cells per well. At 24 hours after seeding, half log serial dilutions of compounds made with Dimethyl sulfoxide (DMSO, Sigma, Cat. D2650) were further diluted with the same culture medium as described above before they were added to the cells to reach desired final compound concentrations and 1% DMSO concentration. Plates were then incubated at 37° C. for another 5 days before measurement of HBeAg level and cell viability. Intracellular HBeAg level were measured with enzyme-linked immunosorbent assay (ELISA) kit (Shanghai Kehua Diagnostic Medical Products Co., Ltd). Cell viability was assessed using Cell Counting Kit-8 (DonJindo, Cat. CK04-20). IC50 values were derived from the dose-response curve using 4 parameter logistic curve fit method.
The compounds of the present invention were tested for their capacity to inhibit extracellular HBeAg level as described herein.

SMILES | IC50 [nM]
COc1cc(Br)c(OCCC(=O)NS(=O)(=O)C2CC2)cc1-c1cc(=O)c2cccc(Cl)c2o1 [Example 3, 3-[2-Bromo-5-(8-chloro-4-oxo-chromen-2-yl)-4-methoxy-phenoxy]-N-cyclopropylsulfonyl-propanamide] | 580
COc1cc(Br)c(OCC(=O)O)cc1-c1cc(=O)c2cccc(Cl)c2o1 [Example 4, 2-[2-Bromo-5-(8-chloro-4-oxo-chromen-2-yl)-4-methoxy-phenoxy]acetic acid] | 1960
COc1cc(Br)c(OCCCOCC(=O)O)cc1-c1cc(=O)c2cccc(Cl)c2o1 [Example 6, 2-[3-[2-Bromo-5-(8-chloro-4-oxo-chromen-2-yl)-4-methoxy-phenoxy]propoxy]acetic acid] | 1660
COc1cc(Cl)c(OC2CC(C(=O)O)C2)cc1-c1cc(=O)c2cccc(Cl)c2o1 (stereo not drawn) [Example 7, 3-[2-Chloro-5-(8-chloro-4-oxo-chromen-2-yl)-4-methoxy-phenoxy]cyclobutanecarboxylic acid] | 4510
COc1cc(C)c(OCCOC2CC(C(=O)O)C2)cc1-c1cc(=O)c2cccc(Cl)c2o1 (stereo not drawn) [Example 9, 3-[2-[5-(8-Chloro-4-oxo-chromen-2-yl)-4-methoxy-2-methyl-phenoxy]ethoxy]cyclobutanecarboxylic acid] | 5200
COc1cc(C)c(OCCC(=O)O)cc1-c1cc(=O)c2cccc(Cl)c2o1 [Example 10, 3-[5-(8-Chloro-4-oxo-chromen-2-yl)-4-methoxy-2-methyl-phenoxy]propanoic acid] | 1540
COc1cc(OC)c(-c2cc(=O)c3cccc(Cl)c3o2)cc1OC1CC(C(=O)O)C1 (stereo not drawn) [Example 12, 3-[5-(8-Chloro-4-oxo-chromen-2-yl)-2,4-dimethoxy-phenoxy]cyclobutanecarboxylic acid] | 620
COc1cc(OC)c(-c2cc(=O)c3cccc(Cl)c3o2)cc1OCCOC1CC(C(=O)O)C1 (stereo not drawn) [Example 13, 3-[2-[5-(8-Chloro-4-oxo-chromen-2-yl)-2,4-dimethoxy-phenoxy]ethoxy]cyclobutanecarboxylic acid] | 190
Cc1ccc(-c2cc(=O)c3cccc(Cl)c3o2)cc1OCC(=O)O [Example 14, 2-[5-(8-Chloro-4-oxo-chromen-2-yl)-2-methyl-phenoxy]acetic acid] | 6320
Cc1ccc(-c2cc(=O)c3cccc(Cl)c3o2)cc1O[C@H]1C[C@H](C(=O)O)C1 [Example 16, trans-3-[5-(8-chloro-4-oxo-chromen-2-yl)-2-methyl-phenoxy]cyclobutanecarboxylic acid] | 6360
COc1ccc(-c2cc(=O)c3cccc(Cl)c3o2)cc1OC1CC(C(=O)O)C1 (stereo not drawn) [Example 17, 3-[5-(8-Chloro-4-oxo-chromen-2-yl)-2-methoxy-phenoxy]cyclobutanecarboxylic acid] | 720
COc1ccc(-c2cc(=O)c3cccc(Cl)c3o2)cc1OCCOC1CC(C(=O)O)C1 (stereo not drawn) [Example 18, 3-[2-[5-(8-Chloro-4-oxo-chromen-2-yl)-2-methoxy-phenoxy]ethoxy]cyclobutanecarboxylic acid] | 520
COc1ccc(-c2cc(=O)c3cccc(Cl)c3o2)cc1OCCC(=O)O [Example 19, 3-[5-(8-Chloro-4-oxo-chromen-2-yl)-2-methoxy-phenoxy]propanoic acid] | 7930
O=c1cc(-c2ccc(C(F)(F)F)c(O[C@H]3C[C@@H](C(=O)O)C3)c2)oc2c(Cl)cccc12 [Example 20, Cis-3-[5-(8-chloro-4-oxo-chromen-2-yl)-2-(trifluoromethyl)phenoxy]cyclobutanecarboxylic acid] | 2140
O=c1cc(-c2ccc(C(F)(F)F)c(O[C@H]3C[C@H](C(=O)O)C3)c2)oc2c(Cl)cccc12 [Example 21, trans-3-[5-(8-chloro-4-oxo-chromen-2-yl)-2-(trifluoromethyl)phenoxy]cyclobutanecarboxylic acid] | 4120
COc1cc(-c2cc(=O)c3cccc(Cl)c3o2)cc(O[C@H]2C[C@@H](C(=O)O)C2)c1OC [Example 23, Cis-3-[5-(8-chloro-4-oxo-chromen-2-yl)-2,3-dimethoxy-phenoxy]cyclobutanecarboxylic acid] | 7360
COc1cc(-c2cc(=O)c3cccc(Cl)c3o2)cc(OCCO[C@H]2C[C@H](C(=O)O)C2)c1OC [Example 24, Trans-3-[2-[5-(8-chloro-4-oxo-chromen-2-yl)-2,3-dimethoxy-phenoxy]ethoxy]cyclobutanecarboxylic acid] | 1460

SMILES | IC50 [nM]
COc1cc(-c2cc(=O)c3cccc(Cl)c3o2)cc(OCC(=O)O)c1OC [Example 25, 2-[5-(8-Chloro-4-oxo-chromen-2-yl)-2,3-dimethoxy-phenoxy]acetic acid] | 7510
COc1cc(Br)c(-c2cc(=O)c3cccc(Cl)c3o2)cc1O[C@H]1C[C@H](C(=O)O)C1 [Example 26, Trans-3-[4-bromo-5-(8-chloro-4-oxo-chromen-2-yl)-2-methoxy-phenoxy]cyclobutanecarboxylic acid] | 1070
COc1cc(Br)c(-c2cc(=O)c3cccc(Cl)c3o2)cc1OCCO[C@H]1C[C@H](C(=O)O)C1 [Example 27, Trans-3-[2-[4-Bromo-5-(8-chloro-4-oxo-chromen-2-yl)-2-methoxy-phenoxy]ethoxy]cyclobutanecarboxylic acid] | 3240
COc1c(OC2CC(C(=O)O)C2)cccc1-c1cc(=O)c2cccc(Cl)c2o1 (stereo not drawn) [Example 28, 3-[3-(8-Chloro-4-oxo-chromen-2-yl)-2-methoxy-phenoxy]cyclobutanecarboxylic acid] | 560
COc1c(OCCO[C@H]2C[C@@H](C(=O)O)C2)cccc1-c1cc(=O)c2cccc(Cl)c2o1 [Example 29, Cis-3-[2-[3-(8-chloro-4-oxo-chromen-2-yl)-2-methoxy-phenoxy]ethoxy]cyclobutanecarboxylic acid] | 3240
COc1ccc(OC2CC(C(=O)O)C2)cc1-c1cc(=O)c2cccc(Cl)c2o1 (stereo not drawn) [Example 30, 3-[3-(8-Chloro-4-oxo-chromen-2-yl)-4-methoxy-phenoxy]cyclobutanecarboxylic acid] | 7510
COc1ccc(OCC(=O)O)cc1-c1cc(=O)c2cccc(Cl)c2o1 [Example 32, 2-[3-(8-Chloro-4-oxo-chromen-2-yl)-4-methoxy-phenoxy]acetic acid] | 7130
COc1ccc(OCCC(=O)O)cc1-c1cc(=O)c2cccc(Cl)c2o1 [Example 33, 3-[3-(8-Chloro-4-oxo-chromen-2-yl)-4-methoxy-phenoxy]propanoic acid] | 6750
COc1c(-c2cc(=O)c3cccc(Cl)c3o2)ccc(Br)c1OCCO[C@H]1C[C@@H](C(=O)O)C1 [Example 34, Cis-3-[2-[6-bromo-3-(8-chloro-4-oxo-chromen-2-yl)-2-methoxy-phenoxy]ethoxy]cyclobutanecarboxylic acid] | 940
COc1c(-c2cc(=O)c3cccc(Cl)c3o2)ccc(Cl)c1OCC(=O)O [Example 37, 2-[6-Chloro-3-(8-chloro-4-oxo-chromen-2-yl)-2-methoxy-phenoxy]acetic acid] | 10100
COc1ccc(-c2cc(=O)c3cccc(Cl)c3o2)c(OC)c1OCC(=O)O [Example 38, 2-[3-(8-Chloro-4-oxo-chromen-2-yl)-2,6-dimethoxy-phenoxy]acetic acid] | 1130
CCOc1cc(Br)c(OCCC(=O)O)cc1-c1cc(=O)c2cccc(Cl)c2o1 [Example 39, 3-[2-Bromo-5-(8-chloro-4-oxo-chromen-2-yl)-4-ethoxy-phenoxy]propanoic acid] | 110
O=C(O)CCOc1cc(-c2cc(=O)c3cccc(Cl)c3o2)c(OC(F)F)cc1Br [Example 40, 3-[2-Bromo-5-(8-chloro-4-oxo-chromen-2-yl)-4-(difluoromethoxy)phenoxy]propanoic acid] | 1390
O=C(O)CCOc1cc(-c2cc(=O)c3cccc(Cl)c3o2)c(F)cc1Br [Example 41, 3-[2-Bromo-5-(8-chloro-4-oxo-chromen-2-yl)-4-fluoro-phenoxy]propanoic acid] | 133
O=C(O)CCOc1cc(-c2cc(=O)c3cccc(Cl)c3o2)c(OC(F)(F)F)cc1Br [Example 42, 3-[2-Bromo-5-(8-chloro-4-oxo-chromen-2-yl)-4-(trifluoromethoxy)phenoxy]propanoic acid] | 2630
O=C(O)CCOc1cc(-c2cc(=O)c3cccc(Cl)c3o2)c(Cl)cc1Br [Example 43, 3-[2-Bromo-4-chloro-5-(8-chloro-4-oxo-chromen-2-yl)phenoxy]propanoic acid] | 11700
